Test results as given in ChEMBL document CHEMBL5550215, “Discovery of Novel Imidazo[1,2-a]pyridine-Based HDAC6 Inhibitors as an Anticarcinogen with a Cardioprotective Effect” (J Med Chem, 2024).

Key:
H9c2 [1] = assay: Protection against H2O2 induced myocardial cell injury in rat H9c2 cells at 10 uM pretreated for 24 hrs followed by H2O2 exposure and measured after 1.5 hrs (reference value: 17.91 to 57.32%); type: functional; conditions: time 25.5 hrs
H9c2 [2] = assay: Protection against H2O2 induced myocardial cell injury in rat H9c2 cells assessed as fold change at 10 uM pretreated for 24 hrs followed by H2O2 exposure and measured after 1.5 hrs relative to H2O2 alone; type: functional; conditions: time 25.5 hrs
MGC-803 = assay: Antiproliferative activity against human MGC-803 cells assessed as inhibition of cell growth by MTT assay
HCT-116 = assay: Antiproliferative activity against human HCT-116 cells assessed as inhibition of cell growth by MTT assay
PANC-1 = assay: Antiproliferative activity against human PANC-1 cells assessed as inhibition of cell growth by MTT assay
TE-1 = assay: Antiproliferative activity against human TE-1 cells assessed as inhibition of cell growth by MTT assay
SMMC-7721 = assay: Antiproliferative activity against human SMMC-7721 cells assessed as inhibition of cell growth by MTT assay
NCI-H460 = assay: Antiproliferative activity against human NCI-H460 cells assessed as inhibition of cell growth by MTT assay
PC-3 = assay: Antiproliferative activity against human PC-3 cells assessed as inhibition of cell growth by MTT assay

What does the source list for `COc1cc(-c2cc(C(=O)Nc3ccccc3)c3nccn3c2)cc(OC)c1OC`?
Activity (H9c2 [1]): 61.69%; fold change (FC) (H9c2 [2]): 1.23

How did the Activity (H9c2 [1]) turn out when `COc1ccc(-c2cc(CNc3ccc(C(=O)NO)cc3)c3nccn3c2)cc1` was run?
Its Activity is 57.47%.

What about the “fold change (FC)” value (H9c2 [2]) of the same molecule?
Its value is 1.56.

How did the Activity (H9c2 [1]) turn out when `O=C(NO)c1ccc(NCc2cc(-c3cccs3)cn3ccnc23)cc1` was run?
Its Activity is 68.84%.

And the “fold change (FC)” value (H9c2 [2])?
Its value is 1.87.

Which Activity (H9c2 [1]) does the source give for `COc1ccc(-c2cc(CNc3ccc(C(=O)NO)cc3)c3nccn3c2)c(OC)c1` here?
Its Activity is 56.04%.

And the “fold change (FC)” value (H9c2 [2])?
The value was 1.52.

Which Activity (H9c2 [1]) does the source give for `Cc1ccc(-c2cc(CNc3ccc(C(=O)NO)cc3Cl)c3nccn3c2)cc1` here?
The Activity was 108.57%.

And the “fold change (FC)” value (H9c2 [2])?
Its value is 2.79.

For `O=C(NO)c1ccc(NCc2cc(-c3ccccc3Cl)cn3ccnc23)cc1`, which Activity (H9c2 [1]) is on record?
The Activity was 57.08%.

What about the “fold change (FC)” value (H9c2 [2]) of the same molecule?
The value was 1.6.

Which results are given for `Cc1cccc(-c2cc(NCc3ccc(C(=O)NO)cc3)c3nccn3c2)c1`?
Activity (H9c2 [1]): 49.08%; fold change (FC) (H9c2 [2]): 1.01

`Cc1ccc(-c2cc(CNc3ccc(C(=O)NNC(=O)OC(C)(C)C)cc3)c3nccn3c2)cc1` was tested. Which Activity (H9c2 [1]) did it give?
The Activity was 64.23%.

And the “fold change (FC)” value (H9c2 [2])?
Its value is 2.12.

For `Cc1ccc(-c2cc(CNc3ccc(C(=O)NO)cc3C)c3nccn3c2)cc1`, which Activity (H9c2 [1]) is on record?
Its Activity is 53.88%.

What about the “fold change (FC)” value (H9c2 [2]) of the same molecule?
The value was 1.51.

For `CC(C)c1ccc(-c2cc(CNc3ccc(C(=O)NO)cc3)c3nccn3c2)cc1`, which Activity (H9c2 [1]) is on record?
Its Activity is 54.12%.

And the “fold change (FC)” value (H9c2 [2])?
The value was 1.47.

Which Activity (H9c2 [1]) does the source give for `Cc1ccc(-c2cc(CNc3ccc(C(=O)NNc4ccccc4F)cc3)c3nccn3c2)cc1` here?
The Activity was 35.98%.

And the “fold change (FC)” value (H9c2 [2])?
Its value is 1.19.

How did the Activity (H9c2 [1]) turn out when `COc1cc(-c2cc(C(=O)N3CCOCC3)c3nccn3c2)cc(OC)c1OC` was run?
The Activity was 34.81%.

And the “fold change (FC)” value (H9c2 [2])?
The value was 0.73.

With `Cc1cccc(-c2cc(CNc3ccc(C(=O)NO)cc3)c3nccn3c2)c1` as the molecule, how does the Activity (H9c2 [1]) read?
Its Activity is 50.3%.

What about the “fold change (FC)” value (H9c2 [2]) of the same molecule?
Its value is 1.36.

With `CCc1ccccc1-c1cc(CNc2ccc(C(=O)NO)cc2)c2nccn2c1` as the molecule, how does the Activity (H9c2 [1]) read?
The Activity was 50.13%.

What about the “fold change (FC)” value (H9c2 [2]) of the same molecule?
The value was 2.01.

How did the Activity (H9c2 [1]) turn out when `Cc1ccc(-c2cc(CNc3ccc(C(=O)NO)cc3)c3nccn3c2)cc1` was run?
The Activity was 68.72%.

And the “fold change (FC)” value (H9c2 [2])?
The value was 1.93.

With `COc1cc(-c2cc(C(=O)NCCN3CCN(C(=O)OC(C)(C)C)CC3)c3ccccc3n2)cc(OC)c1OC` as the molecule, how does the Activity (H9c2 [1]) read?
Its Activity is 53.37%.

And the “fold change (FC)” value (H9c2 [2])?
Its value is 1.19.

For `COc1cc(-c2cc(C(=O)NCCN3CCOCC3)c3nccn3c2)cc(OC)c1OC`, which Activity (H9c2 [1]) is on record?
The Activity was 36.19%.

What about the “fold change (FC)” value (H9c2 [2]) of the same molecule?
Its value is 0.63.

With `O=C(NO)c1ccc(NC(=O)c2cc(-c3ccc(F)cc3)cn3ccnc23)cc1` as the molecule, how does the Activity (H9c2 [1]) read?
Its Activity is 74.82%.

And the “fold change (FC)” value (H9c2 [2])?
Its value is 2.11.

What does the source list for `O=C(NO)c1ccc(NCc2cc(-c3cccc(F)c3)cn3ccnc23)cc1`?
Activity (H9c2 [1]): 53.76%; fold change (FC) (H9c2 [2]): 1.46

Which Activity (H9c2 [1]) does the source give for `Cc1ccc(-c2cc(CNc3ccc(C(=O)NNC(C)C)cc3)c3nccn3c2)cc1` here?
The Activity was 54.92%.

And the “fold change (FC)” value (H9c2 [2])?
The value was 1.82.

What does the source list for `Cc1ccccc1-c1cc(NCc2ccc(C(=O)NO)cc2)c2nccn2c1`?
Activity (H9c2 [1]): 67.83%; fold change (FC) (H9c2 [2]): 1.4

For `Cc1ccc(-c2cc(CNc3ccc(C(=O)NOC4CCCCO4)cc3)c3nccn3c2)cc1` (stereo unspecified), which Activity (H9c2 [1]) is on record?
Its Activity is 59.02%.

And the “fold change (FC)” value (H9c2 [2])?
Its value is 1.69.

`Cc1ccc(-c2cc(C(=O)Nc3ccc(C(=O)NO)cc3)c3nccn3c2)cc1` was tested. Which Activity (H9c2 [1]) did it give?
Its Activity is 65.82%.

And the “fold change (FC)” value (H9c2 [2])?
The value was 1.84.

Which Activity (H9c2 [1]) does the source give for `Cc1ccc(-c2cc(CNc3ccc(C(=O)O)cc3)c3nccn3c2)cc1` here?
The Activity was 18.02%.

What about the “fold change (FC)” value (H9c2 [2]) of the same molecule?
The value was 1.01.

With `COc1cc(-c2cc(C(=O)NCCN3CCN(C(=O)OC(C)(C)C)CC3)c3nccn3c2)cc(OC)c1OC` as the molecule, how does the Activity (H9c2 [1]) read?
The Activity was 49.54%.

What about the “fold change (FC)” value (H9c2 [2]) of the same molecule?
The value was 1.1.

`Cc1ccc(-c2cc(NCc3ccc(C(=O)NO)cc3)c3nccn3c2)cc1` was tested. Which Activity (H9c2 [1]) did it give?
Its Activity is 74.15%.

What about the “fold change (FC)” value (H9c2 [2]) of the same molecule?
The value was 2.08.

Which results are given for `Cc1ccc(-c2cc(CNc3ccc(C(=O)Nc4ccccc4N)cc3)c3nccn3c2)cc1`?
Activity (H9c2 [1]): 21.76%; fold change (FC) (H9c2 [2]): 1.21

With `Cc1ccccc1-c1cc(CNc2ccc(C(=O)NO)cc2)c2nccn2c1` as the molecule, how does the Activity (H9c2 [1]) read?
The Activity was 67.73%.

What about the “fold change (FC)” value (H9c2 [2]) of the same molecule?
The value was 1.38.

What does the source list for `O=C(NO)c1ccc(NCc2cc(-c3cccc(Cl)c3)cn3ccnc23)cc1`?
Activity (H9c2 [1]): 73.84%; IC50 (MGC-803): 3.82 µM; IC50 (HCT-116): > 10 µM; IC50 (PANC-1): > 10 µM; IC50 (TE-1): > 10 µM; IC50 (SMMC-7721): 2.99 µM; IC50 (NCI-H460): > 10 µM; IC50 (PC-3): > 10 µM

`COc1cc(-c2cc(C(=O)NCc3ccccc3)c3nccn3c2)cc(OC)c1OC` was tested. Which Activity (H9c2 [1]) did it give?
Its Activity is 56.67%.

And the “fold change (FC)” value (H9c2 [2])?
Its value is 0.99.

With `O=C(NO)c1ccc(CNc2cc(-c3cccc(F)c3)cn3ccnc23)cc1` as the molecule, how does the Activity (H9c2 [1]) read?
Its Activity is 72.58%.

What about the “fold change (FC)” value (H9c2 [2]) of the same molecule?
Its value is 1.5.

`Cc1ccc(-c2cc(CNc3ccc(C(=O)NN)cc3)c3nccn3c2)cc1` was tested. Which Activity (H9c2 [1]) did it give?
Its Activity is 85.94%.

And the “fold change (FC)” value (H9c2 [2])?
The value was 2.63.

With `COc1ccccc1NC(=O)c1ccc(NCc2cc(-c3ccc(C)cc3)cn3ccnc23)cc1` as the molecule, how does the Activity (H9c2 [1]) read?
Its Activity is 48.69%.

And the “fold change (FC)” value (H9c2 [2])?
Its value is 1.61.

Which results are given for `Cc1ccccc1-c1cc(C(=O)NCc2ccc(C(=O)NO)cc2)c2nccn2c1`?
Activity (H9c2 [1]): 63.03%; IC50 (MGC-803): 1.31 µM; IC50 (HCT-116): 9.49 µM; IC50 (PANC-1): > 10 µM; IC50 (TE-1): 2.56 µM; IC50 (SMMC-7721): 2.6 µM; IC50 (NCI-H460): 8.67 µM; IC50 (PC-3): > 10 µM

For `Cc1ccc(-c2cc(CNc3ccc(C(=O)NO)cn3)c3nccn3c2)cc1`, which Activity (H9c2 [1]) is on record?
The Activity was 58.82%.

And the “fold change (FC)” value (H9c2 [2])?
Its value is 1.27.

With `O=C(NO)c1ccc(NCc2cc(-c3ccc(F)cc3)cn3ccnc23)cc1` as the molecule, how does the Activity (H9c2 [1]) read?
Its Activity is 66.3%.

What about the “fold change (FC)” value (H9c2 [2]) of the same molecule?
The value was 1.86.

Which results are given for `O=C(NO)c1ccc(CNc2cc(-c3ccc(F)cc3)cn3ccnc23)cc1`?
Activity (H9c2 [1]): 90.19%; fold change (FC) (H9c2 [2]): 1.86

Which Activity (H9c2 [1]) does the source give for `Cc1ccc(-c2cc(CNc3ccc(C(=O)N4CCOCC4)cc3)c3nccn3c2)cc1` here?
The Activity was 62.08%.

What about the “fold change (FC)” value (H9c2 [2]) of the same molecule?
The value was 2.05.

How did the Activity (H9c2 [1]) turn out when `COc1ccccc1CNC(=O)c1ccc(NCc2cc(-c3ccc(C)cc3)cn3ccnc23)cc1` was run?
Its Activity is 56.7%.

What about the “fold change (FC)” value (H9c2 [2]) of the same molecule?
Its value is 1.88.

Which Activity (H9c2 [1]) does the source give for `Cc1ccc(-c2cc(CNc3ccc(C(=O)NNC(C)(C)C)cc3)c3nccn3c2)cc1` here?
Its Activity is 65.75%.

And the “fold change (FC)” value (H9c2 [2])?
Its value is 2.17.

What does the source list for `O=C(NO)c1ccc(NCc2cc(-c3cccc(Br)c3)cn3ccnc23)cc1`?
Activity (H9c2 [1]): 98.49%; IC50 (MGC-803): 5.07 µM; IC50 (HCT-116): > 10 µM; IC50 (PANC-1): > 10 µM; IC50 (TE-1): 6.23 µM; IC50 (SMMC-7721): 3.18 µM; IC50 (NCI-H460): 9.44 µM; IC50 (PC-3): > 10 µM

For `Cc1ccc(-c2cc(CNc3ccc(C(=O)NO)cc3F)c3nccn3c2)cc1`, which Activity (H9c2 [1]) is on record?
Its Activity is 52.82%.

What about the “fold change (FC)” value (H9c2 [2]) of the same molecule?
The value was 1.36.

What does the source list for `Cc1ccc(-c2cc(CNc3ccc(C(=O)NNc4ccccc4)cc3)c3nccn3c2)cc1`?
Activity (H9c2 [1]): 64.68%; fold change (FC) (H9c2 [2]): 2.14

With `CCc1ccc(-c2cc(CNc3ccc(C(=O)NO)cc3)c3nccn3c2)cc1` as the molecule, how does the Activity (H9c2 [1]) read?
Its Activity is 63.8%.

And the “fold change (FC)” value (H9c2 [2])?
Its value is 1.73.

What does the source list for `O=C(NO)c1ccc(NCc2cc(-c3ccccc3F)cn3ccnc23)cc1`?
Activity (H9c2 [1]): 57.23%; fold change (FC) (H9c2 [2]): 1.55

`O=C(NO)c1ccc(CNc2cc(-c3ccccc3F)cn3ccnc23)cc1` was tested. Which Activity (H9c2 [1]) did it give?
The Activity was 54.74%.

And the “fold change (FC)” value (H9c2 [2])?
The value was 1.13.

Which Activity (H9c2 [1]) does the source give for `Cc1ccccc1-c1cc(C(=O)Nc2ccc(C(=O)NO)cc2)c2nccn2c1` here?
The Activity was 56.16%.

And the “fold change (FC)” value (H9c2 [2])?
The value was 1.57.

How did the Activity (H9c2 [1]) turn out when `Cc1cccc(-c2cc(C(=O)Nc3ccc(C(=O)NO)cc3)c3nccn3c2)c1` was run?
The Activity was 78.26%.

What about the “fold change (FC)” value (H9c2 [2]) of the same molecule?
The value was 2.19.

Which results are given for `COc1ccccc1-c1cc(CNc2ccc(C(=O)NO)cc2)c2nccn2c1`?
Activity (H9c2 [1]): 67.63%; fold change (FC) (H9c2 [2]): 1.9
